Laboratory results taken from article PMC4483627 (Marine Drugs, 2015).
Values joined by “and” are separate entries in the source; they are usually repeats but may differ in a detail not shown here. Identical values can stand only once. Positions of bridges follow the written chain, without caps; N, C: chain ends. Residues, ends and D or L forms follow the SMILES beside them.

Tests used:
Assay in all cases: cell-based
rat nAChR α3β2 [1] = molecular target: T1, rat nAChR α3β2 (Rattus norvegicus, UniProt P04757+P12390); assay type: cell-based
T1 construct: expressed in transfected cells; host or cells: Xenopus oocytes injected with cRNA
T1 sequence (P04757 26-499 limits assumed): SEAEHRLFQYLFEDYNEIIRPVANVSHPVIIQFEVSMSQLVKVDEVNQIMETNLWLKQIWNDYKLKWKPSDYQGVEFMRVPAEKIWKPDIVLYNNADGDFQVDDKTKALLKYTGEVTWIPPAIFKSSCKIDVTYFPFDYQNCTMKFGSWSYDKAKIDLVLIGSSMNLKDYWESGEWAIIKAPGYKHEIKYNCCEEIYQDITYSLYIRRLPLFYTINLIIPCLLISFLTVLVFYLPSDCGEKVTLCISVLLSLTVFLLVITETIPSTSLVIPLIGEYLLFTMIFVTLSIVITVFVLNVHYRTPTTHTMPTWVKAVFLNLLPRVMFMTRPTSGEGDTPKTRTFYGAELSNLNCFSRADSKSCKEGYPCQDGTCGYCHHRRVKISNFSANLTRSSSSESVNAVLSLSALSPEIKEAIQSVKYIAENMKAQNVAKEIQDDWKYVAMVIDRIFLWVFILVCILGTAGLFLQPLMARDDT
T1 sequence (P12390 25-500 limits assumed): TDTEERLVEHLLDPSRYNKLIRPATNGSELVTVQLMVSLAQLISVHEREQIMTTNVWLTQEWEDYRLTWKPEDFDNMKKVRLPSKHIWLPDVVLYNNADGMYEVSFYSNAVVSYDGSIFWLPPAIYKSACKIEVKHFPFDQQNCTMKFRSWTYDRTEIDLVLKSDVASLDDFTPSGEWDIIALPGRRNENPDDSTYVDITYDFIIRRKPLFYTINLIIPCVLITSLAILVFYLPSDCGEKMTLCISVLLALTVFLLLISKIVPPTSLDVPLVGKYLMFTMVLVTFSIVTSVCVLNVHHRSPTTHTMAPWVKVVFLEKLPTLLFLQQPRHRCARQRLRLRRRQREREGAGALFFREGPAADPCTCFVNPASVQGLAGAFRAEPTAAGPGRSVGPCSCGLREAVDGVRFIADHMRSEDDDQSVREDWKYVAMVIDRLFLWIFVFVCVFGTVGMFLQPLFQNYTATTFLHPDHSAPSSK

rat nAChR α9α10 = molecular target: T2, rat nAChR α9α10 (Rattus norvegicus, UniProt P43144+Q9JLB5)
T2 construct: expressed in transfected cells; host or cells: Xenopus oocytes injected with cRNA
T2 sequence (P43144 26-479 limits assumed): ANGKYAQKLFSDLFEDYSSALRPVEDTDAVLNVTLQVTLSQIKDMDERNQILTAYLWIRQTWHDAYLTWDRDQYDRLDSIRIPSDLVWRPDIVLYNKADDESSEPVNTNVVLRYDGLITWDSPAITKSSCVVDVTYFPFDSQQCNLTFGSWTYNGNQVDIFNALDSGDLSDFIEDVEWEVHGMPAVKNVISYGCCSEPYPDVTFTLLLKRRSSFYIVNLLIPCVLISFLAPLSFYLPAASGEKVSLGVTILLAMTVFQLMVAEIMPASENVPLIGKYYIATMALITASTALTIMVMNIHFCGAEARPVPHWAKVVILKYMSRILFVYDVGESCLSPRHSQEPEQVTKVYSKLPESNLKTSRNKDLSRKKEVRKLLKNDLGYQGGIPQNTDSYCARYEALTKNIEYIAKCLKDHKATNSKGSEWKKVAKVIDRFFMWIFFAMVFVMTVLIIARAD
T2 sequence (Q9JLB5 25-447 limits assumed): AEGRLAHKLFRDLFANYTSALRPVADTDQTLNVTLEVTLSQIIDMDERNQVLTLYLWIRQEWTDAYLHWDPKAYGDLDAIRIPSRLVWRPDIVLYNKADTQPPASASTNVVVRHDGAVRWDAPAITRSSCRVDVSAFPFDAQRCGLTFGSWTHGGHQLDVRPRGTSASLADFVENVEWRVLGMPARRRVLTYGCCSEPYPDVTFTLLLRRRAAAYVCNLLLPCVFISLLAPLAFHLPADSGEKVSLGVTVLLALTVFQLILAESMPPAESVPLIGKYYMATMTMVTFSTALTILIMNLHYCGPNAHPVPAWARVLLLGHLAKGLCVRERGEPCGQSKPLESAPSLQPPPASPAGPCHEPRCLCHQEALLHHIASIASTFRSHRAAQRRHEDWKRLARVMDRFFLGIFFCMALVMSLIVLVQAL

rat nAChR α7 = molecular target: T3, rat nAChR α7 (Rattus norvegicus, UniProt Q05941)
T3 construct: expressed in transfected cells; host or cells: Xenopus oocytes injected with cRNA
T3 sequence (Q05941 23-502 limits assumed): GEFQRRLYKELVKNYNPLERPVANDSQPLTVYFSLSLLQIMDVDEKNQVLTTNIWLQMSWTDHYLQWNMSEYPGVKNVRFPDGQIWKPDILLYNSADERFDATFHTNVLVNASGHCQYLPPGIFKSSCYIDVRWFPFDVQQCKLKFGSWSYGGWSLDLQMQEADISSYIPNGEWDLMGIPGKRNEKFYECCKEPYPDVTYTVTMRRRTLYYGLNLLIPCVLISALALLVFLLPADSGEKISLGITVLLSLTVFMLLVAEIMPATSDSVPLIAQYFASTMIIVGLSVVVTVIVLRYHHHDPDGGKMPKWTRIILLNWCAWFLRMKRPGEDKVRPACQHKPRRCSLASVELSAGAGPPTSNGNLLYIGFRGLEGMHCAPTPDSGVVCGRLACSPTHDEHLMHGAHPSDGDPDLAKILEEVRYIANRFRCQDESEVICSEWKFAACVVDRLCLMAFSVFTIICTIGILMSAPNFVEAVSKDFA

rat nAChR α2β4 = molecular target: T4, rat nAChR α2β4 (Rattus norvegicus, UniProt P12389+P12392); details: for IC50: IC50 α2β4
T4 construct: expressed in transfected cells; host or cells: Xenopus oocytes injected with cRNA
T4 sequence (P12389 28-511 limits assumed): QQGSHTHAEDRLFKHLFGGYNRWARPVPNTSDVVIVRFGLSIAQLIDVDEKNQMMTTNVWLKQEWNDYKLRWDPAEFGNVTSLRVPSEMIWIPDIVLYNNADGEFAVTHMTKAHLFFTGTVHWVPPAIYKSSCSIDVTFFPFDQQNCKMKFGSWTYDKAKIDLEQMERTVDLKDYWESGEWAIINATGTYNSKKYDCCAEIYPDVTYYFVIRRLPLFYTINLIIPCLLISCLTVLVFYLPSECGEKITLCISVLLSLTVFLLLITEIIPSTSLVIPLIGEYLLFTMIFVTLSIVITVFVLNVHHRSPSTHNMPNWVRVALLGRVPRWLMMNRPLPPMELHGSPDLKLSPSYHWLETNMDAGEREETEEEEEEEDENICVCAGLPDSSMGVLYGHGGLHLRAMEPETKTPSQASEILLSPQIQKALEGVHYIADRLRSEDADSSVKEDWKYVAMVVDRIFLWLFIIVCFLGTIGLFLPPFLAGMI
T4 sequence (P12392 21-495 limits assumed): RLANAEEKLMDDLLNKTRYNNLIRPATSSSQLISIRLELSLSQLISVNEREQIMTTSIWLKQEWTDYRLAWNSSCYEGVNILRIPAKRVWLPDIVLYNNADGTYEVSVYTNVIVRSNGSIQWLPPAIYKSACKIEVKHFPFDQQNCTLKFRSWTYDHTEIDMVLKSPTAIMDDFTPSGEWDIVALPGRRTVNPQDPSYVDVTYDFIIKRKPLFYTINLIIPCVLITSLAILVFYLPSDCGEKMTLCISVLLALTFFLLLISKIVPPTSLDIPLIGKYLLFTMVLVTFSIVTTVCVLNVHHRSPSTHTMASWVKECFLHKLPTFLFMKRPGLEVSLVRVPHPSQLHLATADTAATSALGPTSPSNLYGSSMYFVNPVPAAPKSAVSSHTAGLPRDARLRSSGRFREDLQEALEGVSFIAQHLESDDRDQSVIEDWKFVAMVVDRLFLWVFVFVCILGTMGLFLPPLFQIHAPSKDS

rat nAChR α3β4 = molecular target: T5, rat nAChR α3β4 (Rattus norvegicus, UniProt P04757+P12392)
T5 construct: expressed in transfected cells; host or cells: Xenopus oocytes injected with cRNA
T5 sequence (P04757 26-499 limits assumed): as the sequence (P04757 26-499 limits assumed) above
T5 sequence (P12392 21-495 limits assumed): as the sequence (P12392 21-495 limits assumed) above

rat nAChR α3β2 [2] = molecular target: T1, rat nAChR α3β2; assay type: cell-based; remark: listed apart in the source

SMILES | kon (rat nAChR α3β2 [1]) | koff (rat nAChR α3β2 [1]; SEM) | IC50 (rat nAChR α9α10) | IC50 (rat nAChR α7) | IC50 (rat nAChR α2β4) | IC50 (rat nAChR α3β4) | IC50 (rat nAChR α3β2 [2]) | further results
CC(C)C[C@@H]1NC(=O)[C@H](CCC(=O)O)NC(=O)[C@@H]2CCCN2C(=O)[C@H](Cc2c[nH]cn2)NC(=O)[C@H](CC(N)=O)NC(=O)[C@H](C(C)C)NC(=O)[C@H](Cc2c[nH]cn2)NC(=O)[C@@H]2CSSC[C@H](NC(=O)[C@H](C)NC(=O)[C@@H]3CCCN3)C(=O)N[C@@H](CSSC[C@@H](C(N)=O)NC1=O)C(=O)N[C@@H]([C@@H](C)O)C(=O)N[C@@H](Cc1c[nH]cn1)C(=O)N1CCC[C@H]1C(=O)N[C@@H](C)C(=O)N2 [Mr1.7[E2A,S12N]] (H-PACCTHPACHVNHPELC-NH2; disulfide 3-9, 4-17) | 73800 M⁻¹ s⁻¹ | 0.00173 s⁻¹ | > 10 µM | 591 nM | 3490 nM | 556 nM |  | 
CC(C)C[C@@H]1NC(=O)[C@H](CCC(=O)O)NC(=O)[C@@H]2CCCN2C(=O)[C@H](Cc2c[nH]cn2)NC(=O)[C@H](CO)NC(=O)[C@H](C(C)C)NC(=O)[C@H](Cc2c[nH]cn2)NC(=O)[C@@H]2CSSC[C@H](NC(=O)[C@H](C)NC(=O)[C@@H]3CCCN3)C(=O)N[C@@H](CSSC[C@@H](C(N)=O)NC1=O)C(=O)N[C@@H]([C@@H](C)O)C(=O)N[C@@H](Cc1c[nH]cn1)C(=O)N1CCC[C@H]1C(=O)N[C@@H](C)C(=O)N2 [Mr1.7[E2A]] (H-PACCTHPACHVSHPELC-NH2; disulfide 3-9, 4-17) | 86300 M⁻¹ s⁻¹ | 0.0028 s⁻¹ | > 10 µM | > 10000 nM | > 10000 nM | > 10000 nM |  | selectivity index (SI) for α3β2 (rat nAChR α3β2 [2]): > 847
CC(C)C[C@@H]1NC(=O)[C@H](CCC(=O)O)NC(=O)[C@@H]2CCCN2C(=O)[C@H](Cc2c[nH]cn2)NC(=O)[C@H](CC(N)=O)NC(=O)CNC(=O)[C@H](Cc2c[nH]cn2)NC(=O)[C@@H]2CSSC[C@H](NC(=O)CN)C(=O)N[C@@H](CSSC[C@@H](C(N)=O)NC1=O)C(=O)N[C@@H]([C@@H](C)O)C(=O)N[C@@H](Cc1c[nH]cn1)C(=O)N1CCC[C@H]1C(=O)N[C@@H](C)C(=O)N2 [Mr1.7[E2G,V11G,S12N,Δ1]] (H-GCCTHPACHGNHPELC-NH2; disulfide 2-8, 3-16; N-terminus assumed) | 208000 M⁻¹ s⁻¹ | 0.00352 s⁻¹ | > 10 µM | > 10000 nM | 390 nM | 125 nM |  | 50% recovery from block (rat nAChR α3β2 [1]): 3.3 min; t1/2 (rat nAChR α3β2 [1]): 3.286 (2.842–3.894) min; kobs (rat nAChR α3β2 [1]; SEM): 1.460 ± 0.2516 min⁻¹; α9α10/α3β2 (rat nAChR α9α10): >2272; α7/α3β2 (rat nAChR α7): >2272; α2β4/α3β2 (rat nAChR α2β4): 89; α3β4/α3β2 (rat nAChR α3β4): 27
CC(C)C[C@@H]1NC(=O)[C@H](CCC(=O)O)NC(=O)[C@@H]2CCCN2C(=O)[C@H](Cc2c[nH]cn2)NC(=O)[C@H](CO)NC(=O)[C@H](C(C)C)NC(=O)[C@H](C)NC(=O)[C@@H]2CSSC[C@H](NC(=O)[C@H](CCC(=O)O)NC(=O)[C@@H]3CCCN3)C(=O)N[C@@H](CSSC[C@@H](C(N)=O)NC1=O)C(=O)N[C@@H]([C@@H](C)O)C(=O)N[C@@H](Cc1c[nH]cn1)C(=O)N1CCC[C@H]1C(=O)N[C@@H](C)C(=O)N2 [Mr1.7[H10A]] (H-PECCTHPACAVSHPELC-NH2; disulfide 3-9, 4-17) |  |  |  |  |  |  | 123 nM | 
CC(C)C[C@@H]1NC(=O)[C@H](CCC(=O)O)NC(=O)[C@@H]2CCCN2C(=O)[C@H](C)NC(=O)[C@H](CO)NC(=O)[C@H](C(C)C)NC(=O)[C@H](Cc2c[nH]cn2)NC(=O)[C@@H]2CSSC[C@H](NC(=O)[C@H](CCC(=O)O)NC(=O)[C@@H]3CCCN3)C(=O)N[C@@H](CSSC[C@@H](C(N)=O)NC1=O)C(=O)N[C@@H]([C@@H](C)O)C(=O)N[C@@H](Cc1c[nH]cn1)C(=O)N1CCC[C@H]1C(=O)N[C@@H](C)C(=O)N2 [Mr1.7[H13A]] (H-PECCTHPACHVSAPELC-NH2; disulfide 3-9, 4-17; N-terminus assumed) |  |  |  |  |  |  | > 10000 nM | 
CC(C)C[C@@H]1NC(=O)[C@H](CCC(=O)O)NC(=O)[C@@H]2CCCN2C(=O)[C@H](Cc2c[nH]cn2)NC(=O)[C@H](CO)NC(=O)[C@H](C(C)C)NC(=O)[C@H](Cc2c[nH]cn2)NC(=O)[C@@H]2CSSC[C@H](NC(=O)[C@H](CCC(=O)O)NC(=O)[C@H](C)N)C(=O)N[C@@H](CSSC[C@@H](C(N)=O)NC1=O)C(=O)N[C@@H]([C@@H](C)O)C(=O)N[C@@H](Cc1c[nH]cn1)C(=O)N1CCC[C@H]1C(=O)N[C@@H](C)C(=O)N2 [Mr1.7[P1A]] (H-AECCTHPACHVSHPELC-NH2; disulfide 3-9, 4-17) |  |  |  |  |  |  | 42 nM | 
CC(C)C[C@@H]1NC(=O)[C@H](CCC(=O)O)NC(=O)[C@@H]2CCCN2C(=O)[C@H](Cc2c[nH]cn2)NC(=O)[C@H](CC(N)=O)NC(=O)[C@H](C(C)C)NC(=O)[C@H](Cc2c[nH]cn2)NC(=O)[C@@H]2CSSC[C@H](NC(=O)[C@H](CCC(=O)O)NC(=O)[C@@H]3CCCN3)C(=O)N[C@@H](CSSC[C@@H](C(N)=O)NC1=O)C(=O)N[C@@H]([C@@H](C)O)C(=O)N[C@@H](Cc1c[nH]cn1)C(=O)N1CCC[C@H]1C(=O)N[C@@H](C)C(=O)N2 [Mr1.7[S12N]] (H-PECCTHPACHVNHPELC-NH2; disulfide 3-9, 4-17) | 130000 M⁻¹ s⁻¹ | 0.00407 s⁻¹ | > 10 µM | 220 nM | 370 nM and 367 nM | 850 nM |  | 
CC(C)C[C@@H]1NC(=O)[C@H](CCC(=O)O)NC(=O)[C@@H]2CCCN2C(=O)[C@H](Cc2c[nH]cn2)NC(=O)[C@H](CC(N)=O)NC(=O)CNC(=O)[C@H](Cc2c[nH]cn2)NC(=O)[C@@H]2CSSC[C@H](NC(=O)[C@H](CCC(=O)O)NC(=O)[C@@H]3CCCN3)C(=O)N[C@@H](CSSC[C@@H](C(N)=O)NC1=O)C(=O)N[C@@H]([C@@H](C)O)C(=O)N[C@@H](Cc1c[nH]cn1)C(=O)N1CCC[C@H]1C(=O)N[C@@H](C)C(=O)N2 [Mr1.7[V11G,S12N]] (H-PECCTHPACHGNHPELC-NH2; disulfide 3-9, 4-17) |  |  |  |  |  |  | 28.4 nM | 
CC(C)C[C@@H]1NC(=O)[C@H](CCC(=O)O)NC(=O)[C@@H]2CCCN2C(=O)[C@H](Cc2c[nH]cn2)NC(=O)[C@H](CO)NC(=O)CNC(=O)[C@H](Cc2c[nH]cn2)NC(=O)[C@@H]2CSSC[C@H](NC(=O)[C@H](CCC(=O)O)NC(=O)[C@@H]3CCCN3)C(=O)N[C@@H](CSSC[C@@H](C(N)=O)NC1=O)C(=O)N[C@@H]([C@@H](C)O)C(=O)N[C@@H](Cc1c[nH]cn1)C(=O)N1CCC[C@H]1C(=O)N[C@@H](C)C(=O)N2 [Mr1.7[V11G]] (H-PECCTHPACHGSHPELC-NH2; disulfide 3-9, 4-17) |  |  |  |  |  |  | 138 nM | 
CC(C)C[C@@H]1NC(=O)[C@H](CCC(=O)O)NC(=O)[C@@H]2CCCN2C(=O)[C@H](Cc2c[nH]cn2)NC(=O)[C@H](CO)NC(=O)[C@H](C(C)C)NC(=O)[C@H](Cc2c[nH]cn2)NC(=O)[C@@H]2CSSC[C@H](NC(=O)[C@H](CCC(=O)O)NC(=O)[C@@H]3CCCN3C(=O)[C@@H](N)CCCNC(=N)N)C(=O)N[C@@H](CSSC[C@@H](C(N)=O)NC1=O)C(=O)N[C@@H]([C@@H](C)O)C(=O)N[C@@H](Cc1c[nH]cn1)C(=O)N1CCC[C@H]1C(=O)N[C@@H](C)C(=O)N2 [RaaMr1.7] (H-RPECCTHPACHVSHPELC-NH2; disulfide 4-10, 5-18; N-terminus assumed) |  |  |  |  |  |  | 41.2 nM | 
